# Experimental data taken from ChEMBL document CHEMBL4041485, “Bissubvilides A and B, Cembrane-Capnosane Heterodimers from the Soft Coral Sarcophyton subviride” (J Nat Prod, 2016).
# Where a name gives a salt, the structure may show the parent alone.
# Key:
# Assay type in all cases: functional, cell-based
# [1] = test system: A549; assay: Cytotoxicity against human A549 cells by MTT assay
# [2] = test system: Huh-7; assay: Cytotoxicity against human HuH7 cells by CCK-8 assay
# [3] = test system: MG-63; assay: Cytotoxicity against human MG63 cells by MTT assay
compound,measurement,setting,value
CC1=C2CCC3=CCC[C@@](C)(OC3=O)[C@@H](O)CC/C(C)=C/[C@@H]2[C@@]23CC/C(C(C)C)=C\[C@H]4[C@@](C)(O)CC[C@]4(O)[C@@](C)(CC[C@@H]2C1)OC3=O,IC50,[1],> 25 µM
same,IC50,[2],> 50 µM
same,IC50,[3],> 30 µM
C=C(C)/C1=C/[C@H]2[C@@](C)(O)CC[C@]2(O)[C@@]2(C)CC[C@@H]3CC(C)=C4CCC5=CCC[C@@](C)(OC5=O)[C@@H](O)CC/C(C)=C/[C@@H]4[C@]3(CC1)C(=O)O2,IC50,[1],> 25 µM
same,IC50,[2],> 50 µM
same,IC50,[3],> 30 µM
COc1cccc2c1C(=O)c1c(O)c3c(c(O)c1C2=O)C[C@@](O)(C(=O)CO)C[C@@H]3O[C@H]1C[C@H](N)[C@H](O)[C@H](C)O1 [DOXORUBICIN HYDROCHLORIDE],IC50,[1],2.9 µM
same,IC50,[2],14.8 µM
same,IC50,[3],2.2 µM
